Data taken from US10421718B2, “EBNA1 inhibitors and their method of use” (priority 2013, dated 2019).
Structures can show the parent of a compound that is named as a salt.

Target: T1, His-EBNA1 (DNA binding domain of EBNA1, amino acids 459-607) (Epstein-Barr virus, UniProt P03211)
T1 construct: made in house; host or cells: E. coli
Test: Inhibition of 5′-biotin-oPL4624 binding to His-EBNA1 using Alpha Screen technology
Conditions: Alpha Screen Activity (IC50, inhibition of 5′-biotin-oPL4624 binding to His-EBNA1), 15 nM His-EBNA1, 0.2 nM bt-oPL4624, 2 hr room temperature
Method: Inhibition of 5′-biotin-oPL4624 binding to His-EBNA1 using Alpha Screen technology: Assays were performed using the DNA binding domain of EBNA1 (amino acids 459-607), which was His-tagged (His-EBNA1) and the self-complementary biotinylated (bt) oligonucleotide with the sequence 5′-bt-[…]-ATGCTACCC-3′ (bt-oPL4624). The protein was expressed in E. coli and purified according to Barwell, et al. (Barwell J A, Bochkarev A, Pfuetzner R A, Tong H, Yang D S, Frappier L, Edwards A M. (1995) Overexpression, purification, and crystallization of the DNA binding and dimerization domains of the Epstein-Barr virus nuclear antigen 1. J Biol Chem. 270: 20556-9.). The bt-oPL4624 oligonucleotide was purchased from Integrated DNA Technologies, Inc (IDT). AlphaScreen donor, acceptor beads and white, opaque 384-well assay plates were purchased from PerkinElmer, Inc.
Assays contained 15 nM His-EBNA1, 0.2 nM bt-oPL4624, 5 μg/mL AlphaScreen streptavidin donor beads and nickel chelate acceptor beads, and a series of concentrations of test compound ranging from 3.2 nM to 100 μM in a total volume of 40 μL assay buffer (25 mM Tris, pH 7.2, 160 mM NaCl, 1 mM MgCl2). His-EBNA1 (30 nM) and bt-oPL4624 (0.4 nM) were preincubated with 10 μg/mL nickel chelate AlphaScreen acceptor bead, or 10 μg/mL streptavidin AlphaScreen donor bead, respectively, for 30 minutes at room temperature in assay buffer. Twenty microliters of His-EBNA1/acceptor bead mix and bt-oPL4624/donor bead mix were transferred to assay plates containing […] of 1:3 serial dilutions of test compounds previously prepared in DMSO at concentrations ranging from 0.32 μM to 10 mM. Nonspecific binding was determined with 5 μg/mL AlphaScreen acceptor bead in the absence of His-EBNA1. After 2 hr incubation at room temperature, the AlphaScreen signal was measured on the Envision plate reader (PerkinElmer, Inc.) at 680 nm excitation and 570 nm emission. Inhibition values at each concentration of test compound were determined by setting 100% equal to raw data values in the absence of EBNA1 and 0% equal to the raw data values in the presence of EBNA1. Nonlinear regression fits of the inhibition values to a one-site dose-response equation were performed using GraphPad Prism.

T1 sequence (P03211 459-607): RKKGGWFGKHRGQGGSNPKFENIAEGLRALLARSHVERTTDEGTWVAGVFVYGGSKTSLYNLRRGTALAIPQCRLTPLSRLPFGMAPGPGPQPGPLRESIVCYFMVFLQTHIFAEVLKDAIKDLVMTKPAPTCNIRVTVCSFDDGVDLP

Compound | IC50
O=C(O)c1cccc(C#Cc2ccccc2CO)c1F [Entry 88, 2-fluoro-3-{2-[2-(hydroxymethyl)phenyl]ethynyl}benzoic acid] | 1 to 10 µM
O=C(O)c1cccc(C#Cc2cscn2)c1F [Entry 89] | 1 to 10 µM
O=C(O)c1cccc(C#Cc2ccccn2)c1 [Entry 90, 3-[2-(pyridin-2-yl)ethynyl]benzoic acid] | 100 to 1000 µM
O=C(O)c1cccc(C#Cc2cccnc2)c1 [Entry 91, 3-[2-(pyridin-3-yl)ethynyl]benzoic acid] | 1 to 10 µM
O=C(O)c1cccc(C#Cc2ccccc2)c1 [Entry 92, 3-(2-phenylethynyl)benzoic acid] | 10 to 100 µM
O=C(O)c1cccc(C#Cc2ccncc2)c1 [Entry 93, 3-[2-(pyridin-4-yl)ethynyl]benzoic acid] | 1 to 10 µM
COc1ccc(C#Cc2cccc(C(=O)O)c2)cc1 [Entry 94, 3-[2-(4-methoxyphenyl)ethynyl]benzoic acid] | 100 to 1000 µM
CN(C)Cc1ccc(-c2c(C#Cc3ccccc3)cccc2C(=O)O)cc1 [Entry 95, 2-{4-[(dimethylamino)methyl]phenyl}-3-(2-phenylethynyl)benzoic acid trifluoroacetic acid salt] | 1 to 10 µM
O=C(O)c1cccc(C#Cc2ccccc2)c1C1=CCNCC1 [Entry 96, 3-(2-phenylethynyl)-2-(1,2,3,6-tetrahydropyridin-4-yl)benzoic acid trifluoroacetic acid salt] | 1 to 10 µM
O=C(O)c1cccc(C#Cc2ccccc2)c1-c1ccncc1 [Entry 97, 3-(2-phenylethynyl)-2-(pyridin-4-yl)benzoic acid trifluoroacetic acid salt] | 10 to 100 µM
CS(=O)(=O)c1ccc(-c2c(C#Cc3ccccc3)cccc2C(=O)O)cc1 [Entry 98, 2-(4-methanesulfonylphenyl)-3-(2-phenylethynyl)benzoic acid] | 10 to 100 µM
O=C(O)c1cccc(C#Cc2ccccc2)c1-c1cn[nH]c1 [Entry 99, 3-(2-phenylethynyl)-2-(1H-pyrazol-4-yl)benzoic acid] | 1 to 10 µM
O=C(O)c1cccc(C#Cc2ccccc2)c1-c1cncnc1 [Entry 100, 3-(2-phenylethynyl)-2-(pyrimidin-5-yl)benzoic acid] | 100 to 1000 µM
Cn1cc(-c2c(C#Cc3ccccc3)cccc2C(=O)O)cn1 [Entry 101, 2-(1-methyl-1H-pyrazol-4-yl)-3-(2-phenylethynyl)benzoic acid] | 1 to 10 µM
O=C(O)c1cccc(C#Cc2ccccc2)c1N1CCCC1c1ccccc1 (stereo not drawn) [Entry 102, 3-(2-phenylethynyl)-2-(2-phenylpyrrolidin-1-yl)benzoic acid] | 1 to 10 µM
CN(C)C1CCN(c2c(C#Cc3ccccc3)cccc2C(=O)O)C1 (stereo not drawn) [Entry 103, 2-(3-(dimethylamino)pyrrolidin-1-yl)-3-(phenylethynyl)benzoic acid] | 10 to 100 µM
O=C(O)c1cccc(C#Cc2ccccc2)c1N1CCC(C(=O)O)C1 (stereo not drawn) [Entry 104, 1-(2-carboxy-6-(phenylethynyl)phenyl)pyrrolidine-3-carboxylic acid] | 10 to 100 µM
O=C(O)c1cccc(C#Cc2ccccc2)c1N1CC[C@H](O)C1 [Entry 105, (S)-2-(3-hydroxypyrrolidin-1-yl)-3-(phenylethynyl)benzoic acid] | 100 to 1000 µM
O=C(O)c1cccc(C#Cc2ccccc2)c1N1CCCC1 [Entry 106, 3-(phenylethynyl)-2-(pyrrolidin-1-yl)benzoic acid] | 10 to 100 µM
O=C(O)c1cccc(C#Cc2ccccc2)c1N1CCNCC1 [Entry 107, 3-(phenylethynyl)-2-(piperazin-1-yl)benzoic acid] | 10 to 100 µM

Compound | IC50
O=C(O)c1cccc(C#Cc2ccccc2)c1NCc1ccccc1 [Entry 108, 2-(benzylamino)-3-(phenylethynyl)benzoic acid] | 10 to 100 µM
O=C(O)c1cccc(C#Cc2ccccc2)c1-n1cc(-c2ccccc2)nn1 [Entry 109, 2-(4-phenyl-1H-1,2,3-triazol-1-yl)-3-(2-phenylethynyl)benzoic acid] | 10 to 100 µM
COc1cccc(-c2cn(-c3c(C#Cc4ccccc4)cccc3C(=O)O)nn2)c1 [Entry 110, 2-(4-(3-methoxyphenyl)-1H-1,2,3-triazol-1-yl)-3-(phenylethynyl)benzoic acid] | 10 to 100 µM
O=C(O)c1cccc(C#Cc2ccccc2)c1-n1cc(-c2cccnc2)nn1 [Entry 111, 3-(phenylethynyl)-2-(4-(pyridin-3-yl)-1H-1,2,3-triazol-1-yl)benzoic acid] | 10 to 100 µM
O=C(O)c1cccc(C#Cc2ccccc2)c1-n1cc(CCCO)nn1 [Entry 112, 2-(4-(3-hydroxypropyl)-1H-1,2,3-triazol-1-yl)-3-(phenylethynyl)benzoic acid] | 10 to 100 µM
CN(C)S(=O)(=O)NC(=O)c1cccc(C#Cc2ccccc2)c1-n1cccc1 [Entry 113, N-(Dimethylsulfamoyl)-3-(2-phenylethynyl)-2-(1H-pyrrol-1-yl)benzamide] | 1 to 10 µM
CN(C)S(=O)(=O)NC(=O)c1cccc(C#Cc2ccc(F)cc2)c1-n1cccc1 [Entry 114, N-(Dimethylsulfamoyl)-3-[2-(4-fluorophenyl)ethynyl]-2-(1H-pyrrol-1-yl)benzamide] | 1 to 10 µM
O=C(NS(=O)(=O)N1CCOCC1)c1cccc(C#Cc2ccccc2)c1-n1cccc1 [Entry 115, N-(morpholine-4-sulfonyl)-3-(2-phenylethynyl)-2-(1H-pyrrol-1-yl)benzamide] | 100 to 1000 µM
O=C(NS(=O)(=O)N1CCS(=O)(=O)CC1)c1cccc(C#Cc2ccccc2)c1-n1cccc1 [Entry 116] | 10 to 100 µM
CS(=O)(=O)NC(=O)c1cccc(C#Cc2ccc(F)cc2)c1-n1cccc1 [Entry 117, 3-[2-(4-fluorophenyl)ethynyl]-N-methanesulfonyl-2-(1H-pyrrol-1-yl)benzamide] | 10 to 100 µM
NS(=O)(=O)NC(=O)c1cccc(C#Cc2ccccc2)c1-n1cccc1 [Entry 118, 3-(phenylethynyl)-2-(1H-pyrrol-1-yl)-N-sulfamoylbenzamide] | 10 to 100 µM
COc1ccc(-c2c(C#Cc3ccccc3)cccc2C(=O)O)cc1 [Entry 119, 2-(4-methoxyphenyl)-3-(2-phenylethynyl)benzoic acid] | 1 to 10 µM
COc1cccc(-c2c(C#Cc3ccccc3)cccc2C(=O)O)c1 [Entry 120, 2-(3-methoxyphenyl)-3-(2-phenylethynyl)benzoic acid] | 1 to 10 µM
COc1ccccc1-c1c(C#Cc2ccccc2)cccc1C(=O)O [Entry 121, 2-(2-methoxyphenyl)-3-(2-phenylethynyl)benzoic acid] | 10 to 100 µM
O=C(O)c1cccc(C#Cc2ccccc2)c1-c1cnc2ccccc2c1 [Entry 122, 3-(2-phenylethynyl)-2-(quinolin-3-yl)benzoic acid] | 10 to 100 µM
O=C(O)c1cccc(C#Cc2ccccc2)c1C1CC1 [Entry 123, 2-cyclopropyl-3-(2-phenylethynyl)benzoic acid] | 1 to 10 µM
O=C(O)c1cccc(C#Cc2ccccc2)c1-c1ccccc1 [Entry 124, 2-phenyl-3-(2-phenylethynyl)benzoic acid] | 10 to 100 µM
Cc1ccc(-c2c(C#Cc3ccccc3)cccc2C(=O)O)cc1 [Entry 125, 2-(4-methylphenyl)-3-(2-phenylethynyl)benzoic acid] | 1 to 10 µM
COc1ccc(-c2c(C#Cc3ccccc3)cccc2C(=O)O)cn1 [Entry 126, 2-(6-methoxypyridin-3-yl)-3-(2-phenylethynyl)benzoic acid] | 10 to 100 µM
